This is an account of results in publication PMC7395176, “Retromer stabilization results in neuroprotection in a model of Amyotrophic Lateral Sclerosis” (Nature Communications, 2020).

One data set deals with VPS35 (Mus musculus, UniProt Q9EQH3+Q9QZ88). As to the kind of experiment: VPS35 levels in MNs and lumbar SC of treated G93A mice. The format is in vivo. The note with it: 10 mg/kg, day 100. Also on record: from tissue; host or cells: mouse (lumbar) spinal cord, motor neurons. Here is the method:
We asked whether compound 2a could do the same in G93A MNs, using confocal microscopy to quantify VPS35 fluorescence levels in MNs gated in the ventral horn of lumbar SCs. We observed a significant reduction of VPS35 mean fluorescence intensity (MFI) levels in vehicle-treated G93A mice. […] We next assayed VPS26 MFI levels on parallel sections.
Fluorescence intensity levels of VPS35, VPS26, CI-MPR, Sortilin, CTSD and Ubiquitin were calculated using NHI-Image J software (US National Institutes of Health) according to the following protocol: stacks of confocal images were used to generate the maximal projections using the Leica Application Suite X (2.0.0.14332) software and then postprocessed by NHI-Image J to crop single NeuN^+ MNs from the ventral horn of the spinal cord. We next performed background (calculated on adjacent slices only receiving secondary antibodies) subtraction for each channel, before applying the NHI-Image J mean filter (with radius 2.0 pixels) to calculate mean NeuN fluorescence levels in individual MNs. Using this approach, we established a region of interest (ROI) to gate single MNs. On this ROI, we measured mean fluoresce levels (MFI) of target proteins.
Compound 2a increases VPS35 levels in G93A mice […]

The next data set deals with G93A mice. As to the kind of experiment: Daily treatment of G93A and WT mice, day 30 to day 100: tolerability, rotarod, histopathology. The class given is in vivo. Here is the method: We administered compound 2a (10 mg/kg, i.p.) daily to G93A and WT littermates between day 30 and day 100. […] We next assessed the pathological degeneration of fibers in sciatic nerves of G93A mice treated with compound 2a. We observed axonal degeneration, with a substantial reduction of myelinated nerve fibers in vehicle-treated G93A mice (Fig. 5a, b)[39]. […] Using Luxol Fast Blue (LFB) to label lipoproteins of the myelin sheath, we analyzed myelination.
Mice were maintained under pathogen-free conditions at San Raffaele Hospital mouse facility (Milan, Italy). All efforts were made to minimize animal suffering and to reduce the number of mice used in accordance with the European Communities Council Directive of 24 November 1986 (86/609/EEC). The Ethics Review Committee approved experimental protocols according guidelines from the Italian Ministry of Health and from the Institutional Animal Care and Use Committee of the San Raffaele Scientific Institute (protocol number 704/2015PR). Transgenic mutant SOD1 mice carrying the SOD1^G93A allele (strain B6SJL-TgN[SOD1G93A]1GUR)[75] were purchased from Jackson laboratories, while C57BL/6J mice, used for breeding and experimental purposes, were purchased from Charles River (Italy). Both transgenic and WT mice had food and water freely available in the home-cage. The holding room was on a 12-h light–dark cycle, the temperature of the room was 22 ± 0.2 °C. Starting from day 30 we intraperitoneally injected compound 2a (10 mg/Kg) or vehicle in G93A mice as well as in C57BL/6J mice for 70 days. Additional experiments were performed injecting mice from day 83 to day 103. An operator blind to the treatment performed injections and manipulation of mice. At the day of the sacrifice, mice received an overdose of anesthetic drugs and they were perfused via vascular system with saline followed by 70–80 ml 4% paraformaldehyde (PF) in PBS, pH 7.2 (Sigma–Aldrich). Spinal cords were coronally sliced at ~6-mm thickness and postfixed in 4% PF in PBS, pH 7.2 for 12 h at +4 °C. Tissues were cryoprotected in PBS 1X/30% Sucrose (Sigma–Aldrich), embedded in OCT inclusion media and stored at −80 °C before processing. Lumbar spinal cords were 12-µm sectioned, labelled and digital images were acquired every 330 µm in a region encompassing 2.4 mm of the lumbar spinal cord. We determined numbers of mice by preliminary results or literature precedent.
Motor activity of mice receiving compound 2a or vehicle was assessed on 50-, 60-, 70-, 80-, 90-, and 100-days-old animals. Briefly, mice were trained 1 min on a static rotor and 1 min at constant speed (4 rpm) for two times and then we ran two trials performed over two consecutive days (one per day). Each trial consisted of 6-test sessions with 15 min interval between sessions. For each session, we placed mice on an accelerating rotor (4–40 rpm) and the latency to fall was recorded, with a maximum limit for individual animal set at 600 seconds.
Quantification of nerves degeneration was done on sciatic nerves obtained from saline-perfused mice. Tissues were fixed in 2% buffered glutaraldehyde (Sigma–Aldrich), postfixed in 1% osmium tetroxide and cut to obtain 1 µm thick sections. We stained sections with toluidine blue and specimens were blindly examined by light microscopy using ×40 objective. For each nerve, we merged images to obtain the entire nerve cross section. Five consecutive nonoverlapping semi-thin sections from each sample were analyzed with NHI-Image J software (US National Institutes of Health). Degenerating fibers were counted in the entire nerve cross section.
Quantification of myelin was done on sagittal sciatic nerves by Luxol fast blue (LFB). Briefly, nerve sections were incubated the ethanol series before receiving 0.1% LFB overnight at 60 °C. Sections were then incubated 5 min in 0.05% lithium carbonate before receiving the ethanol series and xylene. Bright field microcopy of nerves at ×63 was used for quantification. […]

Consider `NC(N)=N/N=C/c1cccc(/C=N/N=C(N)N)c1` [compound 2a, phenyl-1,3-bis-guanylhydrazone], for which, on VPS35, the “VPS35 levels in lumbar SC extracts (WB)” value was “increase VPS35 and VPS26b levels”; the “VPS35 mean fluorescence intensity (MFI) in MNs” value was “significantly increased”. In the data set with G93A mice (10 mg/kg i.p. daily, day 30 to day 100), the distress or pain entry is reported as “did not observe distress or undesirable pain”. For the same compound, the “progression of motor deficits (latency to fall, rotarod)” value in the data set on G93A mice (G93A mice, 10 mg/kg i.p. daily, day 30 to day 100) is “significantly slowed down”. Further, the “reduction of degenerating fibers in sciatic nerves” value in the data set on G93A mice (G93A mice, 10 mg/kg, day 100) is listed as around 30%. Further, the “MNs in ventral horns of lumbar SCs” value in the data set with G93A mice (G93A mice, 10 mg/kg, day 100, versus vehicle-treated G93A mice) is “more MNs”. For the same compound, in the data set with G93A mice (SC ventral horn, G93A mice, 10 mg/kg, day 100, versus vehicle), the “total number of Iba1+ cells” value is listed as “Neither CD14 levels nor the total number of Iba1^+ cells changed”. The body weight result in the data set with G93A mice (WT and G93A mice, 10 mg/kg i.p. daily, day 30 to day 100) was “slight, but not significant reduction of body weight”. Besides, in the data set on G93A mice (WT mice, 10 mg/kg i.p. daily, rotarod), the locomotion performances result is recorded as “did not observe alterations of locomotion performances”. In addition, the CD14 levels result in the data set with G93A mice (lumbar SCs, G93A mice, 10 mg/kg, day 100, versus vehicle) is “Neither CD14 levels nor the total number of Iba1^+ cells changed”. Besides, in the data set with G93A mice (sciatic nerves, G93A mice), the “integrity of myelin (MBP, NF-M labelling)” value is “preserved the integrity of myelin”. In addition, the “demyelination (Luxol Fast Blue)” value in the data set with G93A mice (sciatic nerves, G93A mice, versus vehicle-treated G93A mice) is given as “substantial reduction of demyelination”.
